The values that follow come from patent US9220746B2, “Compounds and methods for treating bone disorders and controlling weight” (The University of North Carolina at Chapel Hill, priority 2009, dated 2015).

Where no end group is shown, it is not given here.

For assay [1], the system named is Igfbp2−/− COBs and BMSCs. Description: In vitro osteoblastogenesis of calvarial osteoblasts and bone marrow stromal cells (ALP, Alizarin Red staining). It counts as cell-based, mouse. As to conditions: 2 μg/ml, osteogenic media. The method, then: FIG. 1. The heparin-binding domain of IGFBP2 enhances osteoblastogenesis in vitro. a. Von Kossa staining was performed using tibia from 8 weeks old Igfbp2^+/+ and Igfbp2^−/− male mouse. b. Calvarial osteoblasts (COBs) were harvested from day 7 old male Igfbp2^+/+ and Igfbp2^−/− male mouse, and treated with osteogenic media in the presence of 2.5% FCS. At day 7, alkaline phosphatase (ALP) staining was performed. c and d. COBs and Bone marrow stromal cells (BMSCs) from Igfbp2^−/− mouse were treated with osteogenic media with pegylated heparin-binding domain peptide (PEG-HBD) in the presence of 10% FCS. ALP staining (day 7) and Alizarin Red staining (day 14) were performed (c). RNA was isolated at day 14 from BMSCs and expression of ALP, osteocalcin (OC) and Runx2 was analyzed by real-time PCR. Figures shown represent at least 3 independent experiments (n=3). Statistical difference was analyzed by student's t test. *; p<0.05.
FIG. 7. […] Igfbp2^−/− calvarial osteoblasts (COBs) were cultured with osteogenic media with PBS, control peptide (2 μg/ml) or heparin binding domain peptide (HBD-peptide) (2 μg/ml). Osteoblastogenesis was evaluated by Alizarin Red staining.
Neonatal calvarial osteoblasts were collected from 7-10 day old mice as previously described^53. Briefly, calvariae were digested 5 times with collagenase P and Trypsin. Cells released from digests 2 through 5 were collected as primary calvarial osteoblasts, and maintained in DMEM supplemented with 10% FCS and non-essential amino acids. Osteoblastogenesis of primary calvarial osteoblasts was carried out by treating cells with 4 mM β-glycerophosphate and 50 μg/ml ascorbic acid in αMEM. Bone marrow stromal cells (BMSCs) were harvested from femurs and tibias of 8 weeks old mice as described previously^10. Osteoblastogenesis of BMSCs was induced by the treatment with osteogenic media consisting of αMEM containing 10% FCS, 8 mM β-glycerophosphate, and 50 μg/ml ascorbic acid.

In assay [2] the test system is metacarpals. Description: Metacarpal culture ex vivo (calcein incorporated area, length, width). In kind it is cell-based, mouse. As to conditions: 10 days, IGFBP2 200 ng/ml, peptides 2 μg/ml, vs PBS; for calcein incorporated area of metacarpals: IGF-1 20 ng/ml. The method, then: FIG. 2. The heparin binding domain of IGFBP2 enhances periosteal expansion of metacarpals ex vivo. Metacarpals were collected from day 1 male mouse, and treated with osteogenic media with IGFBP2 (200 ng/ml) or the heparin-binding domain peptide (HBD-peptide) (2 μg/ml) in the presence or absence of IGF-1 (20 ng/ml) for 10 days. Bones were labeled with calcein (500 ng/ml) and calcein incorporated area was visualized (a) and longitudinal length of calcein incorporated area was quantified (b). Alcian blue and Von Kossa double staining was performed (c) and length and width of metacarpals were quantified (d). Statistical difference was analyzed by ANOVA followed by Bonferroni post-hoc test. Figures shown represent at least 3 independent experiments. Values are expressed as the mean±SEM (n=3-4). ^a; <0.05 vs PBS, ^b; <0.01 vs PBS, ^c; <0.001 vs PBS, ^d; <0.01 vs HBD, ^e; <0.05 vs IGF-I, ^f; <0.05 vs HBD.
Metacarpals were isolated from Igfbp2^−/− mice at 1-day old and incubated in DMEM containing 0.5% BSA, 50 μg/ml ascorbic acid and 1 mM β-glycerol phosphate for 10 days^54. Stimulants were added to culture media from day 1. At day 10, metacarpals were incubated in media containing calcein (500 ng/ml) for 2 hours for staining of calcium deposition, and images were obtained. Then, bones were fixed with 4% PFA, embedded in paraffin, and processed for Alcian blue and von Kossa double staining.

The subject of assay [3] is PTEN. Description: Western blot analysis of PTEN expression. It counts as cell-based, mouse. The conditions noted are these: primary calvarial osteoblasts, overnight treatment. The method, then:
FIG. 5. The heparin-binding domain of IGFBP2 suppresses PTEN expression. a and b, Igfbp2^−/− calvarial osteoblasts (COBs) were isolated, and treated with PBS, IGFBP-2 or pegylated heparin-binding domain peptide (PEG-HBD) in MEMα containing 0.1% BSA overnight. Whole cell lysate was collected and expression of PTEN and α-actin was analyzed by Western blot analysis. Expression levels of PTEN were quantified by normalizing to the expression levels of α-actin. c and d. COBs pre-incubated with PBS, IGFBP-2 or PEG-HBD overnight were treated with IGF-I (100 ng/ml) for 15 minutes. Whole cell lysate was collected and expression of pSer473-Akt and Akt was analyzed by Western blot analysis. Expression levels of pSer473-Akt were quantified by normalizing to the expression levels of Akt. Figures shown represent at least 3 independent experiments. Values are expressed as the mean±SEM (n=3-4). Statistical difference was analyzed by Student's t-test. *; <0.001, **; <0.01, ^†; <0.05.
FIG. 9. […] Igfbp2^+/+ calvarial osteoblasts were treated with PBS, control peptide, or heparin-binding domain peptide (HBD-peptide) overnight, and whole cell lysate was collected. PTEN expression was analyzed using western blot analysis (a), and quantitative analysis was performed (b). Values were expressed as the mean±SEM (n=3). Statistical significance was analyzed by ANOVA followed by Bonferroni post-hoc test. ^a; p<0.01 vs. PBS, ^b; p<0.01 vs. control peptide.
To prepare whole cell lysates, cells were solubilized in RIPA buffer^55. For cytosolic fraction, cells were solubilized with hypotonic buffer containing protease and phosphatase inhibitors (10 mM Tris, 0.2 mM MgCl2, pH 7.4) and kept on ice for 10 min. Cell lysates were mixed with sucrose buffer (final concentration; 25 mM Sucrose, 0.1 mM EDTA) and centrifuged at 20,000×g for 1 hour. Supernatant was used as cytosolic fraction. To prepare the membrane fraction, cells were solubilized with PBS containing protease and phosphatase inhibitors. The lysates were frozen at −80° C. for 1 h and thawed at room temperature. After three cycles, they were centrifuged at 13,000×g for 25 min. The pellet was suspended with membrane protein isolation buffer (20 mM Tris-HCl; 150 mM NaCl; 1 mM EDTA; 1 mM EGTA; and 1% Triton X-100, pH 7.5) containing protease and phosphatase inhibitors. Protein concentration was assessed by BCA protein assay kit (Thermo Scientific) and equal amounts of sample were separated by SDS-PAGE and transferred electrophoretically to nitrocellulose membranes. Membranes were blocked in 5% BSA in Tris-buffered saline. […]
On the technique in general: In western blotting, separated proteins are transferred to a membrane and probed.

Assay [4] concerns β-catenin. The assay is described as follows: Western blot analysis of β-catenin (cytosolic accumulation, pSer552). It counts as cell-based, mouse. The method, then:
FIG. 6. The heparin-binding domain of IGFBP-2 stimulates cytosolic accumulation and Ser552 phosphorylation of β-catenin by IGF-I. a, MC3T3-E1 cells were serum-starved over-night and treated with IGF-I at the indicated concentration for 6 hours. Expression of β-catenin and α-actin was analyzed by Western blot analysis with membrane and cytosolic fraction. b, Igfbp2^−/− calvarial osteoblasts (COBs) were serum-starved over-night with PBS or pegylated heparin-binding domain peptide (PEG-HBD) and then treated with IGF-I (100 ng/ml) for 6 hours. Expression of β-catenin was analyzed by Western blot analysis with cytosolic fraction and quantified by normalizing to α-actin (n=3). c, MC3T3-E1 cells were serum-starved over-night and treated with IGF-I (100 ng/ml) for 15 min. Expression of pSer552-β-catenin, β-catenin, pSer473-Akt, Akt and α-actin was analyzed by Western blot analysis with whole cell lysates. d, Igfbp2^−/− COBs were serum-starved over-night with PBS or PEG-HBD and then treated with IGF-I (100 ng/ml) for 15 min. Expression of pSer552-β-catenin was analyzed by Western blot analysis with whole cell lysates and quantified by normalizing to β-catenin (n=3). Figures shown represent at least 3 independent experiments. Values are expressed as the mean±SEM. Statistical difference was analyzed by Student's t-test. *; <0.001, **; <0.01, ^†; <0.05. […]

Assay [5] deals with adherent macrophages. The assay is described as follows: Osteoclast differentiation, tartrate resistant acid phosphatase staining. In kind it is cell-based, mouse. As to conditions: osteoclast differentiation. The text has this:
The method for osteoclast differentiation is as follows: Balb/c mice in which the IGFBP-2 gene had been deleted (see V. DeMambro et al, Endocrinology, 149(5): 2051-2061 (2007)) were anesthetized and sacrificed using cervical dislocation. The femurs from each mouse were dissected free of soft tissue and the bone marrow aspirated by needle puncture. Cells were removed sterile and resuspended in DMEM with 10% fetal calf serum. The cells were centrifuged at 700×g and the cell pellet resuspended in medium and plated in 24 well plates at a concentration of 5000 cells/cm^2. The plates that are used are low adherence plates that have no additives to facilitate cell adherence. Under these conditions macrophages will adhere while other cells will not. The media is supplemented with mCSF 20 ng/ml. After 3 days the cells are removed from the plate and the adherent macrophages are exposed to fresh media containing 10% FBS and mCSF. This is repeated again after 3 days and then after an additional 3 days cells are trypsinized and replated in fresh plates at 6×10^4 cells/cm. At this time RANK ligand, 50 ng/ml, is added, although in some experiments concentrations as low as 10 ng/ml were utilized. Medium is changed at 3 and 6 days and on day 7 cells are stained for tartrate resistant acid phosphatase, a marker of osteoclast differentiation. IGFBP-2 was added at concentrations between 50 ng/ml and 500 mcg/ml. The peptide was added at 20 or 200 ng/ml.
For tartrate resistant acid phosphatase staining, a 1% solution is prepared and incubated with the cells for 30 min at room temperature. Cultures are then washed and cell number determined by manual counting.

The subject of assay [6] is cells derived from bone marrow aspirates or calvaria. Description: Osteoblast differentiation, alkaline phosphatase and von kossa stain. It counts as cell-based, mouse. The method, then: For measurement of osteoblast differentiation, the cells are also derived from the same bone marrow aspirates. However in some experiments they were derived from calvaria obtained from newborn animals. Cells are plated in 6 well plates at […] in alpha MEM with 10% fetal bovine serum. Media was changed on day 1 and 3. At day 3 the cells received differentiation medium, which is alphaMEM containing 10% fetal calf serum, 8 mM glycerol phosphate and 50 ug/ml ascorbic acid. Media subsequently is changed every 2 days until termination of the experiment, generally at 18 days. In some experiments fetal calf serum concentration was lowered to either 5% or 2%. IGFBP-2 200 ng/ml was added to some cultures or the IGFBP-2 peptide at concentrations between 2 ng/ml and 2 mcg/ml. To determine osteoblast differentiation, the cells were fixed with 4% paraformaldehyde and then stained for alkaline phosphatase. The cells were then counterstained with von kossa stain to detect mineralization.

Assay [7] concerns IGFBP-2−/− mice. Description: In vivo rescue of the bone phenotype in IGFBP-2−/− mice (micro CT). Also noted: species or system mouse. The method, then: IGFBP-2−/− mice have reduced bone mineral density, reduced cortical and trabecular thickness and reduced bone turnover, both formation and resorption. To determine if the 13 amino acid peptide was active systemically, a pegylated preparation was prepared in order to extend halflife. This preparation was then injected into the mice. Mice between the ages of 16 and 20 weeks were utilized. These mice are known to have a major bone phenotype. The peptide was injected at a dose of 50 mcg of peptide plus conjugate, that is the total molecular weight of PEG plus the peptide, which is approximately 23,000 molecular weight was injected intraperitoneally five days per week for three weeks. Six mice were injected in each group. The major measure of bone density is the bone volume over total volume as calculated by micro CT analysis. This measures the amount of total bone within a given space. Control animals receive PBS injections.

[8] abbreviates: 50 mcg i.p. five days per week for three weeks.

As to “AALSLEEPAALAP (Synthetic control peptide) [control peptide for HBD-peptide, reference compound]”, the “mineralization of Igfbp2−/− COBs (Alizarin Red) compared to PBS” value in assay [1] is given as “did not enhance mineralization”. Moreover, in assay [2], the “calcein incorporated area of metacarpals” value is listed as “no effect” and the “width (and length) of metacarpals” value was “comparable to the metacarpals treated with PBS”. Moreover, the PTEN expression entry in assay [3] was “no effect on PTEN expression”.

Regarding IGF-I: insulin-like growth factor-I, the “calcein incorporated area of metacarpals” value in assay [2] is “stimulated expansion of calcein incorporated area”. In addition, the “Ser552 phosphorylation of β-catenin” value in assay [4] (IGF-I 100 ng/ml 15 min, MC3T3-E1 cells (IGF-I alone) or Igfbp2−/− COBs pre-treated with PEG-HBD) is reported as “stimulated β-catenin phosphorylation on Ser552”. Besides, the “cytosolic accumulation of β-catenin” value in assay [4] (IGF-I 6 hours, MC3T3-E1 cells (IGF-I alone) or Igfbp2−/− COBs pre-treated with PEG-HBD vs PBS) is reported as “enhanced cytosolic accumulation of β-catenin”.

Turning to “RKGFYKRKQCKPSRGKRK (IGFBP-5 heparin binding domain-containing peptide sequence) [HBD-BP5, reference compound]”, the “mineralization of Igfbp2−/− COBs (Alizarin Red) compared to PBS” value in assay [1] is “did not show any enhancement of mineralization”. In addition, in assay [2], the “calcein incorporated area of metacarpals” value is recorded as “did not have any effect” and the “width (and length) of metacarpals” value was “did not have any effect”.

As for “pegylated 13 amino acid peptide: peptide of SEQ ID NO: 1 N-terminally pegylated with methoxyPEG propinaldehyde molecular weight 20 kDa, 1 PEG per peptide ({methoxyPEG 20 kDa}-KHHLGLEEPKKLR)”, the “biologic activity compared to the nonpegylated peptide” value in assay [5] was “equal biologic activity”. Besides, the “biologic activity compared to the nonpegylated peptide” value in assay [6] was “equal biologic activity”. In assay [7] (setting [8]), the “PTEN in bones (biochemical analysis)” value is on record as “downregulated”, the cortical thickness result is listed as “substantially increased” and the “rescue of bone phenotype relative to normal” value is given as ≤ 70%. Moreover, the “BV/TV (bone volume over total volume)” value in assay [7] (50 mcg peptide plus conjugate i.p. five days per week for three weeks, normal 0.22, gene deletion 0.12) turned out to be 0.18.
